Data set [1] is described as follows: H+/Na+ transport assay of bead-derived peptides (one-point).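 Note: relative to parent gramicidin A activity set to 1.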 The format is biochemical. Also noted: key: relative activity; mean of two control wells = 1.00. The settings on record: bead-derived peptide solution, EYPC/EYPG LUVs. The method in brief: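 Values are normalized fluorescence, with Triton X-100 defining 100% and untreated LUVs 0%, and the two control wells averaging 1.00. Vesicles carried 1.0 mM pyranine and included egg yolk phosphatidylglycerol. Peptides were incubated with them 30 min at room temperature.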

For data set [2] the following is noted: cell viability/%. Summed up:
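Peptide stocks diluted 250× in growth medium; P388 cells 1 × 10^4 cells/mL final; 37 °C, 5% CO2, 92 h. WST-1 + 1-methoxy PMS, 4 h, A415. Output: % viability.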

The subject of data set [3] is Streptococcus pyogenes SSI-9. In words: Antibacterial activity assay of bead-derived peptides (three concentrations). The format is cell-based. Also noted: key: +++: inhibition by the 640-fold diluted peptide solution; ++: inhibition by the 160-fold diluted solution; +: inhibition by the 40-fold diluted solution; -: no inhibition. The settings on record: S. pyogenes, bead-derived peptide solution, three concentrations. The method in brief:
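Growth inhibition scored visually as precipitated bacteria after 37 °C, 18 h incubation. Streptococcus pyogenes SSI-9 inoculum of 2 × 10^5 CFU in Ca2+/Mg2+-adjusted Mueller Hinton broth plus 5% laked horse blood; peptides tested at three levels: stock, 4-fold and 16-fold DMSO dilutions.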

From publication PMC7531004, “Discovery of gramicidin A analogues with altered activities by multidimensional screening of a one-bead-one-compound library” (Nature Communications, 2020) come the findings set out here.

What is called viability is a read-out of living cells in per cent, often relative to untreated cells.

Where a SMILES comes first, the peptide text is derived from it. [ ]: non-standard residue; d: D form. The star is where a group is joined. NHCH2CH2OH = OCCN*; For = O=C*

Consider `CC(C)C[C@@H](NC(=O)[C@H](Cc1c[nH]c2ccccc12)NC(=O)[C@H](NC(=O)[C@H](Cc1c[nH]c2ccccc12)NC(=O)[C@@H](CC(C)C)NC(=O)[C@H](Cc1c[nH]c2ccccc12)NC(=O)[C@H](NC(=O)[C@@H](NC(=O)[C@H](NC(=O)[C@H](C)NC(=O)[C@H](NC(=O)[C@H](C)NC(=O)CNC(=O)[C@@H](NC=O)C(C)C)C(C)C)[C@H](C)O)C(C)C)C(C)C)C(C)C)C(=O)N[C@@H](Cc1c[nH]c2ccccc12)C(=O)NCCO` [compound 7912] (For-VGA[dV]A[dT]V[dV]W[dL]W[dV]W[dL]W-NHCH2CH2OH), for which the “H+/Na+ transport activity normalized against the value of 1 (1.00)” value (shortened to “H+/Na+ transport activity normalized”) in data set [1] was 1.12. This compound gave a viability in data set [2] of 100%. Also, in data set [3], the antibacterial activity result is recorded as “-”.
Take `CNC(=O)C[C@@H](NC(=O)[C@H](C)NC(=O)CNC(=O)[C@@H](NC=O)C(C)C)C(=O)N[C@@H](C)C(=O)N[C@H](CC(C)C)C(=O)N[C@H](C(=O)N[C@@H](C(=O)N[C@@H](Cc1c[nH]c2ccccc12)C(=O)N[C@H](CC(C)C)C(=O)N[C@@H](Cc1c[nH]c2ccccc12)C(=O)N[C@H](CC(C)C)C(=O)N[C@@H](Cc1c[nH]c2ccccc12)C(=O)N[C@H](CC(C)C)C(=O)N[C@@H](Cc1c[nH]c2ccccc12)C(=O)NCCO)C(C)C)C(C)C` [compound 8038] (For-VGA[dD](NHMe)A[dL]V[dV]W[dL]W[dL]W[dL]W-NHCH2CH2OH): the “H+/Na+ transport activity normalized” value in data set [1] was 1.04. The compound further came in with a viability in data set [2] of 100%. Besides, in data set [3], the antibacterial activity result is “-”.
On the same counts, the results for `CC(C)C[C@@H](NC(=O)[C@H](C)NC(=O)CNC(=O)[C@@H](NC=O)C(C)C)C(=O)N[C@@H](C)C(=O)N[C@H](CC(C)C)C(=O)N[C@H](C(=O)N[C@@H](C(=O)N[C@@H](Cc1c[nH]c2ccccc12)C(=O)N[C@@H](C(=O)N[C@@H](Cc1c[nH]c2ccccc12)C(=O)N[C@H](CC(C)C)C(=O)N[C@@H](Cc1c[nH]c2ccccc12)C(=O)N[C@@H](C(=O)N[C@@H](Cc1c[nH]c2ccccc12)C(=O)NCCO)C(C)C)C(C)C)[C@H](C)O)C(C)C` [compound 8043] (For-VGA[dL]A[dL]V[dT]W[dV]W[dL]W[dV]W-NHCH2CH2OH) are 1.04, 100% and “-”.
On the same counts, the results for `CC(C)C[C@@H](NC(=O)[C@H](C)NC(=O)CNC(=O)[C@@H](NC=O)C(C)C)C(=O)N[C@@H](C)C(=O)N[C@@H](C(=O)N[C@H](C(=O)N[C@H](CC(C)C)C(=O)N[C@@H](Cc1c[nH]c2ccccc12)C(=O)N[C@@H](C(=O)N[C@@H](Cc1c[nH]c2ccccc12)C(=O)N[C@@H](C(=O)N[C@@H](Cc1c[nH]c2ccccc12)C(=O)N[C@H](CC(C)C)C(=O)N[C@@H](Cc1c[nH]c2ccccc12)C(=O)NCCO)C(C)C)C(C)C)C(C)C)C(C)C` [compound 8051] (For-VGA[dL]A[dV]V[dL]W[dV]W[dV]W[dL]W-NHCH2CH2OH) are 1.13, 16.8% and “+”.
On the same counts, the results for `CC(C)C[C@@H](NC(=O)[C@H](C)NC(=O)CNC(=O)[C@@H](NC=O)C(C)C)C(=O)N[C@@H](C)C(=O)N[C@H](CC(C)C)C(=O)N[C@H](C(=O)N[C@@H](C(=O)N[C@@H](Cc1c[nH]c2ccccc12)C(=O)N[C@H](CC(C)C)C(=O)N[C@@H](Cc1c[nH]c2ccccc12)C(=O)N[C@@H](C(=O)N[C@@H](Cc1c[nH]c2ccccc12)C(=O)N[C@@H](C(=O)N[C@@H](Cc1c[nH]c2ccccc12)C(=O)NCCO)C(C)C)C(C)C)[C@H](C)O)C(C)C` [compound 8130] (For-VGA[dL]A[dL]V[dT]W[dL]W[dV]W[dV]W-NHCH2CH2OH) are 1.17, 100% and “-”.
Take `CC(C)C[C@@H](NC(=O)[C@H](Cc1c[nH]c2ccccc12)NC(=O)[C@H](NC(=O)[C@@H](NC(=O)[C@H](NC(=O)[C@H](C)NC(=O)[C@H](NC(=O)[C@H](C)NC(=O)CNC(=O)[C@@H](NC=O)C(C)C)C(C)C)[C@H](C)O)C(C)C)C(C)C)C(=O)N[C@@H](Cc1c[nH]c2ccccc12)C(=O)N[C@H](CC(C)C)C(=O)N[C@@H](Cc1c[nH]c2ccccc12)C(=O)N[C@@H](C(=O)N[C@@H](Cc1c[nH]c2ccccc12)C(=O)NCCO)C(C)C` [compound 8141] (For-VGA[dV]A[dT]V[dV]W[dL]W[dL]W[dV]W-NHCH2CH2OH): the “H+/Na+ transport activity normalized” value in data set [1] came to 1.03. This compound also came in with a viability in data set [2] of 100%. In addition, in data set [3], the antibacterial activity entry was “-”.
On the same counts, the results for `CC(C)C[C@@H](NC(=O)[C@H](C)NC(=O)CNC(=O)[C@@H](NC=O)C(C)C)C(=O)N[C@@H](C)C(=O)N[C@@H](C(=O)N[C@H](C(=O)N[C@H](CC(C)C)C(=O)N[C@@H](Cc1c[nH]c2ccccc12)C(=O)N[C@H](CC(C)C)C(=O)N[C@@H](Cc1c[nH]c2ccccc12)C(=O)N[C@H](CC(C)C)C(=O)N[C@@H](Cc1c[nH]c2ccccc12)C(=O)N[C@@H](C(=O)N[C@@H](Cc1c[nH]c2ccccc12)C(=O)NCCO)C(C)C)C(C)C)[C@H](C)O` [compound 8288] (For-VGA[dL]A[dT]V[dL]W[dL]W[dL]W[dV]W-NHCH2CH2OH) are 1.02, 47.4% and “-”.
With `CC(C)C[C@@H](NC(=O)[C@H](C)NC(=O)CNC(=O)[C@@H](NC=O)C(C)C)C(=O)N[C@@H](C)C(=O)N[C@@H](C(=O)N[C@H](C(=O)N[C@H](CC(C)C)C(=O)N[C@@H](Cc1c[nH]c2ccccc12)C(=O)N[C@H](CC(C)C)C(=O)N[C@@H](Cc1c[nH]c2ccccc12)C(=O)N[C@H](CC(C)C)C(=O)N[C@@H](Cc1c[nH]c2ccccc12)C(=O)N[C@H](CC(C)C)C(=O)N[C@@H](Cc1c[nH]c2ccccc12)C(=O)NCCO)C(C)C)C(C)C` [compound 8397] (For-VGA[dL]A[dV]V[dL]W[dL]W[dL]W[dL]W-NHCH2CH2OH), in data set [1], the “H+/Na+ transport activity normalized” value came to 1.12. This compound displayed a viability in data set [2] of 0%. Besides, the antibacterial activity result in data set [3] is “+”.
As to `CC(C)C[C@@H](NC(=O)[C@H](C)NC(=O)[C@H](NC(=O)[C@H](C)NC(=O)CNC(=O)[C@@H](NC=O)C(C)C)C(C)C)C(=O)N[C@H](C(=O)N[C@@H](C(=O)N[C@@H](Cc1c[nH]c2ccccc12)C(=O)N[C@H](CC(C)C)C(=O)N[C@@H](Cc1c[nH]c2ccccc12)C(=O)N[C@@H](C(=O)N[C@@H](Cc1c[nH]c2ccccc12)C(=O)N[C@@H](C(=O)N[C@@H](Cc1c[nH]c2ccccc12)C(=O)NCCO)C(C)C)[C@H](C)O)C(C)C)C(C)C` [compound 8473] (For-VGA[dV]A[dL]V[dV]W[dL]W[dT]W[dV]W-NHCH2CH2OH), the “H+/Na+ transport activity normalized” value in data set [1] was 1.01. This compound had a viability in data set [2] of 53.6%. The antibacterial activity result in data set [3] is given as “-”.
On the same counts, the results for `CNC(=O)C[C@@H](NC(=O)[C@H](Cc1c[nH]c2ccccc12)NC(=O)[C@H](NC(=O)[C@H](Cc1c[nH]c2ccccc12)NC(=O)[C@@H](CC(C)C)NC(=O)[C@H](Cc1c[nH]c2ccccc12)NC(=O)[C@H](NC(=O)[C@@H](NC(=O)[C@@H](CC(C)C)NC(=O)[C@H](C)NC(=O)[C@@H](CC(C)C)NC(=O)[C@H](C)NC(=O)CNC(=O)[C@@H](NC=O)C(C)C)C(C)C)C(C)C)C(C)C)C(=O)N[C@@H](Cc1c[nH]c2ccccc12)C(=O)NCCO` [compound 8516] (For-VGA[dL]A[dL]V[dV]W[dL]W[dV]W[dD](NHMe)W-NHCH2CH2OH) are 1.09, 48.7% and “-”.
In the case of `CC(C)C[C@@H](NC(=O)[C@H](C)NC(=O)[C@H](NC(=O)[C@H](C)NC(=O)CNC(=O)[C@@H](NC=O)C(C)C)C(C)C)C(=O)N[C@H](C(=O)N[C@H](CC(C)C)C(=O)N[C@@H](Cc1c[nH]c2ccccc12)C(=O)N[C@@H](C(=O)N[C@@H](Cc1c[nH]c2ccccc12)C(=O)N[C@@H](C(=O)N[C@@H](Cc1c[nH]c2ccccc12)C(=O)N[C@@H](C(=O)N[C@@H](Cc1c[nH]c2ccccc12)C(=O)NCCO)C(C)C)C(C)C)[C@H](C)O)C(C)C` [compound 8554] (For-VGA[dV]A[dL]V[dL]W[dT]W[dV]W[dV]W-NHCH2CH2OH), the “H+/Na+ transport activity normalized” value in data set [1] worked out at 1.03. Also, the viability in data set [2] amounted to 61.3%. Besides, the antibacterial activity entry in data set [3] is “-”.
For the compound `CC(C)C[C@@H](NC(=O)[C@H](Cc1c[nH]c2ccccc12)NC(=O)[C@H](NC(=O)[C@H](Cc1c[nH]c2ccccc12)NC(=O)[C@@H](CC(C)C)NC(=O)[C@@H](NC(=O)[C@H](NC(=O)[C@H](C)NC(=O)[C@H](NC(=O)[C@H](C)NC(=O)CNC(=O)[C@@H](NC=O)C(C)C)C(C)C)C(C)C)C(C)C)C(C)C)C(=O)N[C@@H](Cc1c[nH]c2ccccc12)C(=O)N[C@@H](C(=O)N[C@@H](Cc1c[nH]c2ccccc12)C(=O)NCCO)[C@H](C)O` [compound 8580] (For-VGA[dV]A[dV]V[dL]W[dV]W[dL]W[dT]W-NHCH2CH2OH), the “H+/Na+ transport activity normalized” value in data set [1] is 1.01. The viability in data set [2] was 60.6%. Besides, in data set [3], the antibacterial activity entry is reported as “+”.
